Reference: ChEMBL document CHEMBL1275533, “In vitro antibacterial activity of vertilmicin and its susceptibility to modifications by the recombinant AAC6'-APH2'' enzyme” (2008)
In brackets after ≈: the same amount, converted by molar mass. Activity calls are given as the source filed them. The rule behind the calls is not given here.

Key:
Pseudomonas aeruginosa [1] = assay: Antibacterial activity against non-gentamicin-resistant Pseudomonas aeruginosa clinical isolate after 18 hrs by agar dilution method; assay type: functional
Citrobacter freundii [2] = assay: Antibacterial activity against non-gentamicin-resistant Citrobacter freundii clinical isolate assessed as susceptible isolates after 18 hrs by agar dilution method; assay type: functional
Klebsiella aerogenes [3] = assay: Antibacterial activity against gentamicin-resistant Enterobacter aerogenes clinical isolate after 18 hrs by agar dilution method; assay type: functional
Klebsiella aerogenes [4] = assay: Antibacterial activity against gentamicin-resistant Enterobacter aerogenes clinical isolate assessed as susceptible isolates after 18 hrs by agar dilution method; assay type: functional
Pseudomonas aeruginosa [5] = assay: Antibacterial activity against gentamicin-resistant Pseudomonas aeruginosa clinical isolate after 18 hrs by agar dilution method; assay type: functional
Enterobacter cloacae [6] = assay: Antibacterial activity against gentamicin-resistant Enterobacter cloacae clinical isolate assessed as susceptible isolates after 18 hrs by agar dilution method; assay type: functional
Escherichia coli [7] = assay: Antibacterial activity against non-gentamicin-resistant Escherichia coli clinical isolate assessed as susceptible isolates after 18 hrs by agar dilution method; assay type: functional
Haemophilus influenzae [8] = assay: Antibacterial activity against non-gentamicin-resistant Haemophilus influenzae clinical isolate after 18 hrs by agar dilution method; assay type: functional
Klebsiella aerogenes [9] = assay: Antibacterial activity against non-gentamicin-resistant Enterobacter aerogenes clinical isolate assessed as susceptible isolates after 18 hrs by agar dilution method; assay type: functional
Klebsiella pneumoniae [10] = assay: Antibacterial activity against non-gentamicin-resistant Klebsiella pneumoniae clinical isolate after 18 hrs by agar dilution method; assay type: functional
Enterococcus faecalis = assay: Antibacterial activity against gentamicin-resistant Enterococcus faecalis clinical isolate after 18 hrs by agar dilution method; assay type: functional
Citrobacter freundii [11] = assay: Antibacterial activity against gentamicin-resistant Citrobacter freundii clinical isolate after 18 hrs by agar dilution method; assay type: functional
Haemophilus influenzae [12] = assay: Antibacterial activity against non-gentamicin-resistant Haemophilus influenzae clinical isolate assessed as susceptible isolates after 18 hrs by agar dilution method; assay type: functional, organism-based
Citrobacter freundii [13] = assay: Antibacterial activity against gentamicin-resistant Citrobacter freundii clinical isolate assessed as susceptible isolates after 18 hrs by agar dilution method; assay type: functional
Citrobacter koseri [14] = assay: Antibacterial activity against non-gentamicin-resistant Citrobacter diversus clinical isolate assessed as susceptible isolates after 18 hrs by agar dilution method; assay type: functional
Citrobacter koseri [15] = assay: Antibacterial activity against non-gentamicin-resistant Citrobacter diversus clinical isolate after 18 hrs by agar dilution method; assay type: functional
Pseudomonas aeruginosa [16] = assay: Antibacterial activity against gentamicin-resistant Pseudomonas aeruginosa clinical isolate assessed as susceptible isolates after 18 hrs by agar dilution method; assay type: functional
Enterobacter cloacae [17] = assay: Antibacterial activity against non-gentamicin-resistant Enterobacter cloacae clinical isolate assessed as susceptible isolates after 18 hrs by agar dilution method; assay type: functional
Proteus mirabilis [18] = assay: Antibacterial activity against gentamicin-resistant Proteus mirabilis clinical isolate after 18 hrs by agar dilution method; assay type: functional
Pseudomonas sp. = assay: Antibacterial activity against non-gentamicin-resistant Pseudomonas spp. clinical isolate after 18 hrs by agar dilution method; assay type: functional
Proteus mirabilis [19] = assay: Antibacterial activity against gentamicin-resistant Proteus mirabilis clinical isolate assessed as susceptible isolates after 18 hrs by agar dilution method; assay type: functional
[20] = tested on: Escherichia coli BL21(DE3); assay: Ratio of Vmax to Km for AAC(6')-APH(2'') in Escherichia coli BL21(DE3) assessed as oxidation of NADH by pyruvate kinase relative to netilmicin
[21] = tested on: Escherichia coli BL21(DE3); assay: Phosphorylation activity of AAC(6')-APH(2'') in Escherichia coli BL21(DE3) assessed as oxidation of NADH by pyruvate kinase relative to verdamicin
[22] = tested on: Escherichia coli BL21(DE3); assay: Phosphorylation activity of AAC(6')-APH(2'') in Escherichia coli BL21(DE3) assessed as oxidation of NADH by pyruvate kinase
[23] = tested on: Escherichia coli BL21(DE3); assay: Acetylation activity of AAC(6')-APH(2'') in Escherichia coli BL21(DE3) assessed as production of free pyridine-4-thiolate relative to netilmicin
[24] = tested on: Escherichia coli BL21(DE3); assay: Ratio of Vmax to Km for AAC(6')-APH(2'') in Escherichia coli BL21(DE3) assessed as production of free pyridine-4-thiolate relative to netilmicin
[25] = tested on: Staphylococcus epidermidis; assay: Bactericidal activity against Staphylococcus epidermidis isolate 01-55 at >=1 MIC up to 8 hrs by time-kill study; assay type: functional, organism-based
Escherichia coli [26] = assay: Antibacterial activity against Escherichia coli ATCC 25922 at MIC up to 8 hrs by time-kill study; assay type: functional, organism-based
Klebsiella pneumoniae [27] = assay: Antibacterial activity against Klebsiella pneumoniae isolate 01-21 after 18 hrs by agar dilution method; assay type: functional
[28] = tested on: Staphylococcus epidermidis; assay: Antibacterial activity against Staphylococcus epidermidis isolate 01-55 after 18 hrs by agar dilution method; assay type: functional
Staphylococcus aureus [29] = assay: Bactericidal activity against Staphylococcus aureus ATCC 29213 at >=1 MIC up to 8 hrs by time-kill study; assay type: functional, organism-based
Klebsiella pneumoniae [30] = assay: Antibacterial activity against Klebsiella pneumoniae isolate 01-21 at 1 MIC up to 8 hrs by time-kill study; assay type: functional, organism-based
Staphylococcus aureus [31] = assay: Antibacterial activity against Staphylococcus aureus ATCC 29213 after 18 hrs by agar dilution method; assay type: functional

Compound	MIC50 (Pseudomonas aeruginosa [1])	MIC90 (Pseudomonas aeruginosa [1])	Activity (Citrobacter freundii [2])	MIC50 (Klebsiella aerogenes [3])	MIC90 (Klebsiella aerogenes [3])	Activity (Klebsiella aerogenes [4])	MIC50 (Pseudomonas aeruginosa [5])	MIC90 (Pseudomonas aeruginosa [5])	Activity (Enterobacter cloacae [6])	Activity (Escherichia coli [7])	MIC50 (Haemophilus influenzae [8])	MIC90 (Haemophilus influenzae [8])	Activity (Klebsiella aerogenes [9])	MIC50 (Klebsiella pneumoniae [10])	MIC90 (Klebsiella pneumoniae [10])	MIC50 (Enterococcus faecalis)	MIC90 (Enterococcus faecalis)	MIC50 (Citrobacter freundii [11])	MIC90 (Citrobacter freundii [11])	Activity (Haemophilus influenzae [12])	further results
NCC[C@H](O)C(=O)N[C@@H]1C[C@H](N)[C@@H](O[C@H]2O[C@H](CN)[C@@H](O)[C@H](O)[C@H]2O)[C@H](O)[C@H]1O[C@H]1O[C@H](CO)[C@@H](O)[C@H](N)[C@H]1O [AMIKACIN]	4 µg/mL (≈ 6.83 µM)	16 µg/mL (≈ 27.3 µM)	100%	16 µg/mL (≈ 27.3 µM)	64 µg/mL (≈ 109 µM)	55%	8 µg/mL (≈ 13.7 µM)	32 µg/mL (≈ 54.6 µM)	63.2%	100%	8 µg/mL (≈ 13.7 µM)	16 µg/mL (≈ 27.3 µM)	100%	1 µg/mL (≈ 1.71 µM)	1 µg/mL (≈ 1.71 µM)	128 µg/mL (≈ 219 µM)	> 128 µg/mL	2 µg/mL (≈ 3.42 µM)	32 µg/mL (≈ 54.6 µM)	inactive	Activity (Citrobacter freundii [13]): 31.6%; Activity (Citrobacter koseri [14]): 100%; MIC50 (Citrobacter koseri [15]): 1 µg/mL (≈ 1.71 µM); MIC90 (Citrobacter koseri [15]): 2 µg/mL (≈ 3.42 µM); Activity (Pseudomonas aeruginosa [16]): 85.3%; Activity (Enterobacter cloacae [17]): 96.4%; MIC50 (Proteus mirabilis [18]): 4 µg/mL (≈ 6.83 µM); MIC90 (Proteus mirabilis [18]): > 128 µg/mL; MIC50 (Pseudomonas sp.): 4 µg/mL (≈ 6.83 µM); MIC90 (Pseudomonas sp.): 16 µg/mL (≈ 27.3 µM); Activity (Proteus mirabilis [19]): 63.6%
CCN[C@@H]1C[C@H](N)[C@@H](O[C@H]2OC(CN)=CC[C@H]2N)[C@H](O)[C@H]1O[C@H]1OC[C@](C)(O)[C@H](NC)[C@H]1O [NETILMICIN]	8 µg/mL (≈ 16.8 µM)	32 µg/mL (≈ 67.3 µM)	83.3%	32 µg/mL (≈ 67.3 µM)	128 µg/mL (≈ 269 µM)	30%	> 128 µg/mL	> 128 µg/mL	5.3%	100%	1 µg/mL (≈ 2.1 µM)	2 µg/mL (≈ 4.21 µM)	98.1%	0.5 µg/mL (≈ 1.05 µM)	0.5 µg/mL (≈ 1.05 µM)	4 µg/mL (≈ 8.41 µM)	> 128 µg/mL	8 µg/mL (≈ 16.8 µM)	> 128 µg/mL	inactive	Vmax/Km [20]: 7.4%; Vmax [21]: 55%; Activity (Citrobacter freundii [13]): 47.4%; Activity (Citrobacter koseri [14]): 100%; Km [22]: 308 µM; MIC50 (Citrobacter koseri [15]): 0.5 µg/mL (≈ 1.05 µM); MIC90 (Citrobacter koseri [15]): 0.5 µg/mL (≈ 1.05 µM); Activity (Pseudomonas aeruginosa [16]): 2.9%; Activity (Enterobacter cloacae [17]): 98.2%; MIC50 (Proteus mirabilis [18]): 16 µg/mL (≈ 33.6 µM); MIC90 (Proteus mirabilis [18]): > 128 µg/mL; MIC50 (Pseudomonas sp.): 8 µg/mL (≈ 16.8 µM); MIC90 (Pseudomonas sp.): 32 µg/mL (≈ 67.3 µM); Activity (Proteus mirabilis [19]): 36.4%
CN[C@@H]1[C@@H](O)[C@@H](O[C@@H]2[C@@H](O)[C@H](O[C@@H]3OC(C(C)N)=CC[C@@H]3N)[C@@H](N)C[C@H]2N)OC[C@]1(C)O (stereo partly drawn) [VERDAMICIN]	8 µg/mL (≈ 17.3 µM)	16 µg/mL (≈ 34.7 µM)	72.2%	> 128 µg/mL	> 128 µg/mL	0%	> 128 µg/mL	> 128 µg/mL	5.3%	98.1%	1 µg/mL (≈ 2.17 µM)	1 µg/mL (≈ 2.17 µM)	98.1%	0.25 µg/mL (≈ 0.542 µM)	0.5 µg/mL (≈ 1.08 µM)	128 µg/mL (≈ 277 µM)	> 128 µg/mL	32 µg/mL (≈ 69.3 µM)	> 128 µg/mL	inactive	Activity (Citrobacter freundii [13]): 26.3%; Activity (Citrobacter koseri [14]): 100%; Vmax [23]: 9.6%; Km [22]: 41.4 µM; Vmax/Km [24]: 4.5%; MIC (Citrobacter koseri [15]): 0.25 µg/mL (≈ 0.542 µM); MIC50 (Citrobacter koseri [15]): 0.25 µg/mL (≈ 0.542 µM); MIC90 (Citrobacter koseri [15]): 0.5 µg/mL (≈ 1.08 µM); Activity (Pseudomonas aeruginosa [16]): 2.9%; Activity (Enterobacter cloacae [17]): 98.2%; MIC50 (Proteus mirabilis [18]): > 128 µg/mL; MIC90 (Proteus mirabilis [18]): > 128 µg/mL; MIC50 (Pseudomonas sp.): 2 µg/mL (≈ 4.33 µM); MIC90 (Pseudomonas sp.): 8 µg/mL (≈ 17.3 µM); Activity (Proteus mirabilis [19]): 18.2%
GENTAMICIN	4 µg/mL	8 µg/mL	100%	> 128 µg/mL	> 128 µg/mL	0%	> 128 µg/mL	> 128 µg/mL	0%	100%	2 µg/mL	2 µg/mL	98.1%	0.25 µg/mL	0.5 µg/mL	> 128 µg/mL	> 128 µg/mL	64 µg/mL	128 µg/mL	inactive	Activity [25]: Dose-dependent effect; Activity (Escherichia coli [26]): Dose-dependent effect; MIC (Klebsiella pneumoniae [27]): 0.25 µg/mL; Activity (Citrobacter freundii [13]): 0%; Activity (Citrobacter koseri [14]): 100%; MIC [28]: 1 µg/mL; MIC50 (Citrobacter koseri [15]): 0.25 µg/mL; MIC90 (Citrobacter koseri [15]): 0.5 µg/mL; Activity (Staphylococcus aureus [29]): Dose-dependent effect; Activity (Pseudomonas aeruginosa [16]): 0%; Activity (Enterobacter cloacae [17]): 98.2%; MIC50 (Proteus mirabilis [18]): 128 µg/mL; MIC90 (Proteus mirabilis [18]): > 128 µg/mL; MIC50 (Pseudomonas sp.): 2 µg/mL; MIC90 (Pseudomonas sp.): 8 µg/mL; Activity (Proteus mirabilis [19]): 0%; Activity (Klebsiella pneumoniae [30]): Dose-dependent effect; MIC (Staphylococcus aureus [31]): 0.125 µg/mL
